Laboratory results from patent publication US6527759B1, “Ultrasound assembly for use with light activated drugs” (Ekos Corporation, priority 1995, dated 2003).

Columns and labels:
[1] = Drug solubility in oil: SnEt2 in MCT oil with excipient combinations (Example 5); assay type: physicochemical; conditions: emulsion with excipients vs MCT oil alone
Experimental: (§1) Several emulsions are prepared as described above. In 5 ml glass tubes, medium chain length oil known as MCT oil (Miglyol 801, Hüls America, Piscataway, N.J.) is combined with 10 mg/gm SnEt2 plus excipients as described above. Certain emulsions also included additional excipients in the following concentrations: ethanol at […]; egg phospholipids at 75 mg/gm oil; and sodium cholate at 10 mg/gm oil. After incubating for 30 minutes at 55° C., the tubes stand overnight at room temperature (19°-22° C.). The tubes arc centrifuged to remove bulk precipitates, and supernatants are filtered through 0.45 μm nylon membrane to remove any undissolved drug. Aliquots of filtrate are then diluted in chloroform:isopropyl alcohol (1:1) for spectrophotometric determination of drug concentration (absorbance at 662 nm). Reference standards are prepared with known concentrations of SnEt2 in the same solvent.
The concentration of SnEt2 in each of the emulsions is illustrated in Table 2. As illustrated, the concentration of SnEt2 in the emulsion can be more than ten times the concentration in MCT oil alone.

[2] = Relative efficiency of bile salts as co-solubilizers for SnEt2 in MCT oil, egg phospholipids and ethanol (Example 6); assay type: physicochemical; conditions: egg phospholipids, ethanol
Experimental: as §1
This example illustrates relative efficiencies of several bile salts. Mixtures of MCT oil, egg phospholipids, ethanol, and SnEt2 are incubated with different bile salts, all at 4.6 mM^1, under the same conditions described above. […] Cholic acid lacks solubilizing action in the oil.

CCOC(=O)C1=Cc2c3nc(cc4nc(cc5[n-]c(cc6[n-]c2c(C)c6CC)c(C)c5CC)C(C)=C4CC)[C@@H](C)[C@]13CC.[Cl-].[Cl-].[Sn] (racemic) [SnEt2, tin ethyl etiopurpurin]
concentration of SnEt2 in the emulsion relative to the concentration in MCT oil alone [1]: more than ten | SnEt2 Concentration ([2]; bile compound: Cholic acid, 4.6 mM): 1.33 mg/gm oil | SnEt2 Concentration ([2]; bile compound: Na Tauracholate, 4.6 mM): 1.13 mg/gm oil | SnEt2 Concentration ([2]; bile compound: Na cholate, 4.6 mM): 3.70 mg/gm oil | SnEt2 Concentration ([2]; bile compound: Na deoxycholate, 4.6 mM): 2.31 mg/gm oil | SnEt2 Concentration ([2]; bile compound: Na glycocholate, 4.6 mM): 2.22 mg/gm oil | SnEt2 Concentration ([2]; bile compound: None): 1.26 mg/gm oil
